# Assay results taken from patent US20040198841A1, “Use of thiol-based compositions in ameliorating mucosal injury” (Oregon Health & Science University, priority 2003, published 2004).
# Columns and labels:
# [1] = Brizel DM, J Clin Oncol 2000; cited from earlier work
# [2] = system: Normal human gastric cells (NHGC); assay: WST-1 colorometric assay, chemoprotection against BR96-dox toxicity (Example 4); type: cell-based; conditions: for chemoprotection against BR96-dox toxicity: first test: drug and chemoprotectant co-incubated for 2-3 days
# Description: Normal human gastric cells (NHGC) express high levels of the LewisY antigen recognized by the BR96 monoclonal antibody. BR-96 and BR-96-Dox toxicity was examined in NHGC to determine if toxicity could be protected against with thiol chemoprotectants.
# (§1) Cytotoxicity is determined as the proportion of live cells, in comparison to untreated controls, using the WST-1 colorometric assay available from Roche Diagnostics, Indianapolis, Ind.
# [3] = Weight loss and diarrhea in Long Evans rats seven days after intra-arterial Cisplatin with or without i.v. NAC (Example 1); type: in vivo; conditions: Cisplatin 6 mg/kg intra-arterially
# Description: The graph shown as FIG. 1 represents the weight loss in grams in Long Evans rats seven days after administration of Cisplatin and NAC. Six mg/kg of Cisplatin was given intra-arterially either with or without intravenous (i.v.) administration of NAC at a dosage of 400 mg/kg. The NAC was administered about 15 minutes prior to the Cisplatin administration. The group without NAC consisted of 11 members. The NAC-treated group consisted of 8 members.
# In the method of Example 1 for Cisplatin, the Long Evans rats were weighed, induced with isoflurane inhalant (2%+1.5% O2), intubated, placed on a respirator, and prepped for surgery. Isoflurane was then replaced with propofol (800 ug/kg/min i.v.) and a 50% nitrous/50% oxygen mixture. A ventral midline incision was made from mandible to manubrium. The left carotid bifurcation was exposed and freed, and the left external carotid artery was cannulated. NAC was then given intravenously to the treated group and intravenous saline was given to the untreated group. After 15 minutes, the left internal carotid artery was clamped, and Cisplatin (6 mg/kg) was infused through the external carotid catheter. The cannula was removed, and the skin incisions were closed using 4-0 Vicryl in a simple continuous pattern.
# Seven days after Cisplatin infusion, the rats were weighed. These body weights were compared to those taken before surgery. […] This is correlated with renal failure and/or mucositis in the untreated group.
# [4] = system: GM294 human fibroblasts; assay: WST colorometric cytotoxicity assay, chemoprotection with or without BSO cytoenhancement (Example 3); type: cell-based; conditions: NAC 1000 μg/ml added immediately after melphalan, cisplatin, carboplatin or etoposide phosphate; with or without 100 μM BSO pretreatment
# Description: Cytotoxicity was assessed in GM294 human fibroblasts, 1×10^4 cells per well in 96 well plates, using the WST colorometric assay. Cells were pretreated with or without BSO, 100 μM for 18 hours prior to addition of chemotherapeutics (melphalan=10 μg/ml, carboplatin=100 μg/ml, cisplatin=7.5 μg/ml, etoposide phosphate 100 μg/ml) either alone (open bar), or with NAC rescue, (1000 μg/ml N-acetylcysteine, striped bar), BSO cytoenhancement (black bar), or BSO cytoenhancement and NAC rescue (cross hatched bar). Data are expressed as the percentage of live cells compared to control samples (without chemotherapy) and each point represents the mean±s.d. of 4 wells. This was also repeated with normal human gastric cells (NHGC) and gastric epithelial cells.
# The fibroblast cells were either preincubated or not preincubated with 100 μM BSO for about 18-24 hours prior to addition of chemotherapy, and rescue consisted of 1000-2000 μg/ml of a thiol anti-mucosal injury agent added immediately after chemotherapy. […] Protection of epithelia cells allows for the prevention and treatment of mucositis of these tissues.
# [5] = system: LX-1 cells; assay: Chemoprotection in LX-1 cells (Example 4); type: cell-based; conditions: low dosages, about 0.2 to about 0.5 mg/ml
# Description: as §1
# Low dosages, about 0.2 to about 0.5 mg/ml, of NAC were protective against alkylators in LX-1 cells. NAC was 10-90% chemoprotective of NHGC at high dosages, such as from about 1-5 mg/ml.
# [6] = Weight loss in Long Evans rats 7 days after cisplatin to the aorta, 15 minutes after i.v. saline or NAC (Example 5); type: in vivo; conditions: cisplatin 6 mg/kg via right external carotid artery cannula; NAC 400 mg/kg i.v. 15 minutes before; n=8 per group
# Description: Before the study began, the rats were weighed to establish a baseline. Long Evans rats were treated with cisplatin 6 mg/kg delivered to the aorta via a right external carotid artery cannula 15 minutes after intravenous infusion of saline (n=8) or NAC 400 mg/kg (n=8). This procedure was preformed by the rats being induced with isoflurane inhalant (2%+1.5% oxygen), intubated, placed on a respirator and prepped for surgery. Isoflurane was then replaced with propofol (800 μg/kg/min i.v.) and a 50% nitrous/50% oxygen mixture. A ventral midline incision was made from mandible to manubrium. The right carotid bifurcation was exposed and freed, and the right external carotid artery was cannulated. NAC (400 mg/kg) was then given to the treated group (n=8) and i.v. saline was given to the untreated group (n=8). After 15 minutes, the right internal carotid artery was clamped and cisplatin (6 mg/kg) was rapidly infused through the external carotid catheter. The cannula was removed and the skin incisions were closed using 4-0 Vicryl in a simple continuous pattern. Health and well being were monitored daily post-surgery. After seven days, the animals were weighed and this value compared to the baseline.
# [7] = system: LX-1 SCLC; assay: Weight loss and survival in nude rats 12 days after intracerebral inoculation with LX-1 SCLC cells, with or without oral TMZ (Example 2); type: in vivo
# Description: TMZ was given at a dosage of 5 mg orally, once daily, on days 6-11. There were 10 members in the untreated group and seven members in the group treated with TMZ.
# For the intracerebral inoculations, the nude rats were anesthetized with a mixture of intraperitoneal ketamine (60 mg/kg) and diazepam (7.5 mg/kg). The head was shaved and scrubbed with Betadine, a midline incision made, and a 2 mm burr hole using stereotaxic coordinates was made. A 27 g needle was used for inoculation with a 100 ul Hamilton syringe, placed […] ventral to the surface, deep in the right caudate putamen. Inoculants used were LX-1 SCLC. The needle was withdrawn and the incision closed with wound clips. One group of rats received no treatment, while the other group received oral 5 mg doses of TMZ, an alkylating agent, once daily on days 6-11 after inoculation, delivered through a feeding tube while under isoflurane anesthesia. On day 12, all rats were weighed, sacrificed, and the brains removed and fixed in formalin for subsequent tumor-volume analysis.
# It is believed that TMZ effects the size of any lesions in the brain. The TMZ may decrease the size of any lesions in the brain; those animals experiencing more constant or improved appetite than animals with larger tumors which experienced appetite suppression.
# [8] = NAC 400 mg/kg i.v. 15 minutes prior
compound,measurement,setting,value
"NCCCNCCSP(=O)(O)O [Amifostine, amifostine]",effect on mucositis in patients undergoing radiation therapy,[1],not to reduce mucositis
"CCOC(=O)CNC(=O)[C@H](CS)NC(=O)CC[C@H](N)C(=O)O [GSH ethyl ester, glutathione ethyl ester]",chemoprotection against BR96-dox toxicity,[2],No chemoprotection
"CC(=O)N[C@@H](CS)C(=O)O [NAC, N-acetylcysteine]","diarrhea, group without NAC compared to NAC treated group",[3]; [8],greater diarrhea than the NAC treated group
same,subjective condition of untreated rats compared to NAC-treated group,[3]; [8],"more depressed, cachexic, and dehydrated than the NAC-treated group"
same,"loss of body weight after 7 days, group without NAC compared to NAC-treated group","[3]; NAC 400 mg/kg i.v. about 15 minutes prior, unpaired t-test p<0.0002",significantly larger loss of body weight
same,chemoprotection of fibroblast cells (percentage of live cells),[4],protective effect
same,chemoprotective of NHGC,"[2]; first test: co-incubated for 2-3 days, high dosages, about 1-5 mg/ml",10-90%
same,"chemoprotective, pulsed treatment",[2]; second test: 4 hour pulsed treatment with BR-96-dox and NAC,0-20%
same,protection against alkylators in LX-1 cells,[5],protective
same,weight loss after 7 days compared to control,[6],less weight loss than the control
"O=S([O-])([O-])=S.[Na+].[Na+] [STS, sodium thiosulfate]",chemoprotection against BR96-dox toxicity,[2],No chemoprotection
"Cn1nnc2c(C(N)=O)ncn2c1=O [TMZ, Temazolamide]",subjective activity at day 12 compared to untreated group,[7]; TMZ 5 mg orally once daily on days 6-11,more active and responsive
same,survival to day 12,"[7]; TMZ 5 mg orally once daily on days 6-11, three rats without TMZ did not survive to day 12",all of the TMZ rats survived to day 12
same,"loss of body weight at day 12, group without TMZ compared to group treated with TMZ","[7]; TMZ 5 mg orally once daily on days 6-11 after inoculation, unpaired t-test p<0.0041",significantly higher loss of body weight
"CSCC[C@@H](N)C(=O)O [d-Methionine, D-methionine]",chemoprotection against BR96-dox toxicity,[2],No chemoprotection
